Patent publication US12168802B2, “Methods of diagnosing and treating CD55 deficiency, hyperactivation of complement, angiopathic thrombosis and protein losing enteropathy (CHAPLE), a newly identified orphan disease” (The United States of America, as represented by the …, priority 2016, dated 2024)

Assays:
human CD4+ T cells = assay: Surface expression of C3aR and gut homing markers on CD4+ T cells grown with ATRA; format: cell-based; conditions: w/wo 10 nM ATRA
Method: FIGS. 9A, 9B, 9C, 9D, 9E, 9F, 9G, 9H, 9I, 9J, 9K, 9L, 9M, 9N, 90, and 9P. Changes in inflammatory cytokine production by CD55 deficient cells promote pro-thrombotic changes in endothelial cells. Cytokine secretion in control and patient T cells following restimulation with anti-CD3 for 48 hours. Cells were either left untreated or treated with a combination of C3aR and C5aR1 inhibitors, both at 10 μM final concentration. Each patient point represents the average of at least three independent experiments. Results are for TNFα, IL10, or IFNγ (A, B, and C respectively). […] Quantification of the change in TM and TF expression on HUVECs in response to 24 hour culture with increasing doses of TNFα (H). […] Quantification of CD46, CD59, and CD55 expression on HUVECs in response to 24 hour culture with increasing doses of TNFα (J, K, and L, respectively). Quantification of the change in TM and TF expression on HUVECs in response to 48 hour culture with increasing doses of ATRA (M). Quantification of CD46, CD59, and CD55 expression on HUVECs in response to 48 hour culture with increasing doses of ATRA (N, O, and P, respectively). […]
Flow Cytometry. […] Cells were then washed 3× and resuspended in FACS buffer with 1% PFA and analyzed by flow cytometry. Flow files were analyzed on FlowJo version 9.9 or above (FlowJo, LLC, Ashland, OR, USA).

HUVECs = assay: Surface marker expression on HUVECs after TNFα or ATRA treatment (flow cytometry); format: cell-based, human
Method: FIGS. 9A, 9B, 9C, 9D, 9E, 9F, 9G, 9H, 9I, 9J, 9K, 9L, 9M, 9N, 90, and 9P. Changes in inflammatory cytokine production by CD55 deficient cells promote pro-thrombotic changes in endothelial cells. Cytokine secretion in control and patient T cells following restimulation with anti-CD3 for 48 hours. Cells were either left untreated or treated with a combination of C3aR and C5aR1 inhibitors, both at 10 μM final concentration. Each patient point represents the average of at least three independent experiments. Results are for TNFα, IL10, or IFNγ (A, B, and C respectively). Anaphylatoxin receptor surface expression on proliferating CD4^+ T cells grown in complete RPMI supplemented with 100 u/mL IL2, isotype: filled grey line, sample: solid black line (D). C3aR expression on proliferating CD4^+ T cells grown in serum free X-vivo15 media supplemented with 100 u/mL IL-2 w/wo 10 nM ATRA, grey and black line respectively, isotype: filled grey line (E). IL-10 production in control and patient T cells stimulated with anti-CD3 and stimulatory antibodies directed against the indicated costimulatory molecules (F). Flow plots of thrombomodulin (TM) and Tissue Factor (TF) expression on HUVECs cultured for 24 hours w/wo 10 ng/mL TNFα (G). Quantification of the change in TM and TF expression on HUVECs in response to 24 hour culture with increasing doses of TNFα (H). Flow plots of CD46 and CD59 expression on HUVECs cultured for 24 hours w/wo 10 ng/mL TNFα (I). Quantification of CD46, CD59, and CD55 expression on HUVECs in response to 24 hour culture with increasing doses of TNFα (J, K, and L, respectively). Quantification of the change in TM and TF expression on HUVECs in response to 48 hour culture with increasing doses of ATRA (M). Quantification of CD46, CD59, and CD55 expression on HUVECs in response to 48 hour culture with increasing doses of ATRA (N, O, and P, respectively). (not significant (n.s.), * p<0.05, **p<0.01, ***p<0.001).
Flow Cytometry. Adherent cells were treated with 0.05% trypsin EDTA to lift them from the surface followed by addition of 5% FBS to inactivate the trypsin. Suspension cells were collected from culture following mixture of the culture by repeat pipetting. Cells were washed and resuspended in FACS buffer (1% FBS, 0.05% sodium azide, and 5 mM EDTA in PBS) at 2×10^6 cells/mL. Staining or isotype antibodies were added at 1:200 final dilutions and incubated with cells at 4° C. for 30 minutes to 1 hour. Cells were then washed 3× and resuspended in FACS buffer with 1% PFA and analyzed by flow cytometry. Flow files were analyzed on FlowJo version 9.9 or above (FlowJo, LLC, Ashland, OR, USA).
HUVEC Experiments. Huvecs grown to 80% confluency, and before passage 8, were trypsonized and replated in 24 well tissue culture plates at 200,000 cells/well in Huvec media. Twenty-four hours later the indicated concentrations of TNFα, IL10, or all trans retinoic acid (ATRA) were added. Twenty-four hours later in the cast of TNFα or IL10 treatment or 48 hours later in the case of ATRA, cells were trypsonized and stained for the indicated surface markers following the described flow cytometry staining protocol. Cells were then immediately analyzed.

patient T cells = assay: Anaphylatoxin ratios (C3a/C4a, C5a/C4a) in T cell culture supernatants; format: cell-based, human; conditions: 24 hours incubation with 5% nHS, 100 μM Compstatin
Method: (§1) FIGS. 11A, 11B, and 11C. (A) C3d deposition on patient and control T cells were incubated in the presence or absence of 5% nHS with or without the addition of 100 μM Compstatin to block complement activation. (B) Ratio of C3a to C4a in culture supernatants after 24 hours of incubation with 5% nHS w/wo 100 μM compstatin. (C) Ratio of C5a to C4a in culture supernatants after 24 hours of incubation with 5% nHS or without 100 μM compstatin. ***=p<0.001.
Compstatin Inhibits C3d Deposition on Human Cells. FIG. 11A illustrates that Compstatin inhibits C3d deposition on human T cells. […] In FIG. 11C, the ratio of C5a to C4a in culture supernatants of patient T cells after 24 hours of incubation with 5% nHS and 100 μM Compstatin is decreased, as compared to patient T cells not treated with Compstatin. ***=p<0.001.

human T cells = assay: C3d complement deposition on T cells incubated with normal human serum (flow cytometry); format: cell-based; conditions: 5% nHS, 100 μM Compstatin
Method: as §1
Complement Deposition. T cells (Patient CD4^+ T cell blasts or Jurkat T cells) were collected and washed 3× in basal RPMI. Cells were then resuspended in basal media and rested for 2-3 hours at 37° C. to allow any deposited complement components to be cleared from the cell surface. Rested cells were then collected and resupended in basal RPMI or basal RPMI that had been adjusted to pH 6.5 (acidified media) to a final concentration of 1×10^6 cells/mL. Non-heat shocked pooled normal human serum was then added to cell suspension for the indicated amount of time. Human serum that had been heat shocked at 56° C. for 30 minutes was used as a negative control for complement activation. […] Cells were washed 3× and resuspended in FACS buffer (PBS, 1% FBS) and analyzed for C3d deposition by flow cytometry. […] Cells were then treated with trypsin/EDTA to release cells into suspension, washed, and then analyzed for C3d deposition as above. […]

[1] = 48 hour culture with increasing doses of ATRA

CC1=C(/C=C/C(C)=C/C=C/C(C)=C/C(=O)O)C(C)(C)CCC1 [ATRA, all trans retinoic acid]
surface expression of C3aR on T cells (human CD4+ T cells; serum free X-vivo15 media): depended on the presence | chemokine receptor CCR9 and integrin α4β7 (gut homing) on T cells (human CD4+ T cells; serum free conditions): expressed | CD46 expression (HUVECs; [1]): no change | CD55 expression (HUVECs; [1]): increase | CD59 expression (HUVECs; [1]): no change | thrombomodulin expression (HUVECs; [1]): dose-dependent decrease

CC[C@H](C)[C@H](N)C(=O)N[C@H]1CSSC[C@@H](C(=O)N[C@H](C(N)=O)[C@@H](C)O)NC(=O)[C@H](CCCN=C(N)N)NC(=O)[C@H](Cc2cnc[nH]2)NC(=O)[C@H](Cc2cnc[nH]2)NC(=O)CNC(=O)[C@H](Cc2c[nH]c3ccccc23)NC(=O)[C@H](CC(=O)O)NC(=O)[C@H](CCC(N)=O)NC(=O)[C@H](C(C)C)NC(=O)[C@H](C(C)C)NC1=O [Compstatin]
ratio of C3a to C4a in culture supernatants (patient T cells): considerably decreased | ratio of C5a to C4a in culture supernatants (patient T cells): decreased | C3d deposition on patient T cells (human T cells): substantially inhibited

TNFα
CD46 expression on endothelial cells (HUVECs; 24 hour culture with TNFα): decreased | CD55 expression on endothelial cells (HUVECs; 24 hour culture with TNFα): modestly increasing | CD59 expression on endothelial cells (HUVECs; 24 hour culture with TNFα): decreased | thrombomodulin (TM) and tissue factor (TF) expression on endothelial cells (HUVECs; 24 hour culture with TNFα): induces procoagulatory
